Results: patent US5552267A, “Solution for prolonged organ preservation” (priority 1994, dated 1996)

Key:
heart [1] = test: heterotopic rat heart transplant model, First Series Experiment One (heart survival rate, heart transplant index); format: in vivo, rat (male Sprague-Dawley); details: in place of db cAMP, 24 hr
heart [2] = test: heterotopic rat cardiac transplant, cAMP series, graft survival/score; format: in vivo, rat (male Sprague-Dawley)
Text: Preservation solutions included lactated Ringer's (LR) solution Baxter, Edison, N.J.), or LR supplemented with rolipram ZK 62 711, Schering AG, Berlin, Germany), indolidan LY195115, Lilly Research Laboratories, Indianapolis, Ind.), sodium butyrate, 8-bromoadenosine, 8-bromoadenosine 3',5'monophosphate (8-Br-cAMP; Sigma Chemical Co., St. Louis, Mo.), the Rp -isomer of adenosine 3',5'monophosphorothioate (Rp -cAMPS; Biolog, La Jolla, Calif.), the Sp isomer of adenosine 3',5'monophosphorothioate (Sp -cAMPS; Biolog), and N^6,O^2' -dibutyryl adenosine 3',5'monophosphate sodium (db-cAMP; Aldrich, Milwaukee, Wis.). Components were combined within 4 hrs of donor cardiectomy, and preservation solutions were kept at 4° C. University of Wisconsin solution (UW)(2-4 was purchased from Dupont (Wilmington, Del.).
Donor Cardiectomy. Male Sprague-Dawley rats (350-450 grams, Camm Research, Wayne, N.J.) were anesthetized, heparinized (1000 units of heparin given intravenously), and the donor heart removed in the following manner; a midline incision was performed, followed by rapid cardioplegic arrest with 5 ml of cold (4° C.), high potassium solution (NACl, 0.9%, and KCl, 40 mEq/L). The heart was maintained at 4° C. throughout the harvest procedure by the application of a cold saline soaked gauze over its surface. […] The aortic root was flushed with ≈15 ml of the cold preservation solution until the coronary arteries became visibly clear, and the heart remained in the cold storage solution for the indicated duration until the time of transplantation.
Heterotopic Transplant. The same breed/size of rat was used, and similarly anesthetized, but not given heparin. A midline abdominal incision was made, and the infrarenal aorta and vena cava were occluded with a side-biting vascular clamp and longitudinal incisions were made in each vessel. The donor heart was removed from the preservation solution and kept moist with saline-soaked gauze. […] Blood flow was restored to the graft (by removal of the clamp) exactly one hour after removal from the cold preservation solution. […] Ten minutes after removal of the cross-clamp, an electrocardiogram was taken (Grass Polygraph, Quincy, Mass.) and the heart was judged by the same blinded investigators throughout based on the presence/absence of regular contractions and a transplant score (0-5, worst-best, respectively) employing the following criteria: contraction (poor=0, average=1, vigorous=2), tissue turgor (hard=0, average=1, soft=2), and color (dusky=0, pink=1). […] The heterotopic cardiac transplant experiments performed in these studies were done by a single surgeon after establishment of this model and acquisition of surgical expertise, with control and experimental groups interspersed throughout the study period to prevent a time-dependent bias pertaining to surgical skills.
Statistics. Graft survival data and transplant scores were analyzed using the Kruskal-Wallis non-parametric analysis of variance (38). Comparisons of individual treatments were performed using the procedure described by Dunn (39). In addition, the effect of db-cAMP on the time-course of graft failure was quantified by multivariate logistic regression. Graft myeloperoxidase data, microsphere data, and cAMP/adenylate cyclase/phosphodiesterase data from experiments with cultured vascular smooth muscle cells were analyzed by t-tests when 2 treatments were performed or by analysis of variance when 3 or more treatments were performed. In the latter case, post-hoc comparison of treatment groups were tested using Tukey's procedure. Values are expressed as means ±SEM, with a p <0.05 considered statistically significant.

HUVECs / platelets = test: NO by inhibition of thrombin-induced platelet aggregation and serotonin release by ECs; format: cell-based, human; details: normoxic ECs (hemoglobin); hypoxia 16 h + reoxygenated ECs (SOD, BHT)
Protocol: Radiolabelled serotonin (^14 C-5-hydroxytryptamine, Amersham, Arlington Heights, Ill.) was incorporated into the platelets by adding 0.5 μCi during the blood collection process. Inhibition of cyclooxygenase was confirmed by the absence of aggregation to 1 mM sodium arachidonate.
HUVECs from fresh human umbilical veins were isolated and grown according to previously published methods^12, and used between the 3rd and 4th passages. HUVEC cyclooxygenase was inhibited with acetylsalicylic acid (1 mmol/L in M199 medium, incubated for 30 minutes at 37° C., and then washed twice with M199 to remove residual acetylsalicylic acid) immediately prior to collagenase digestion. […] An hypoxic environment was administered by placing cells in a specially designed airtight chamber (Coy Laboratory Products, Ann Arbor, Mich.) with a normobaric environment comprised of 90% N2, 5% H2, 5% CO2, and 0% O2. pO2 s of 15 Torr in the culture medium were achieved by the use of a palladium catalyst in the chamber to reduce any residual O2. All manipulations, including centrifugation and washing of cells (up to the final aggregometry, or reoxygenation phases as described), were performed within the hypoxia chamber. Reoxygenation was accomplished by removing an aliquot of washed and counted HUVECs in suspension to room air for the indicated duration.
Platelets were challenged with graded doses of α-thrombin (Sigma) to determine the concentration that caused maximal platelet aggregation (0.3 u/mL in all cases), and this dose was used for all further studies. […] Interference with light absorption was measured for 3 minutes to obtain platelet aggregation curves, after which the cuvette contents were placed on ice, centrifuged at 5,000 rpm for 5 minutes at 4° C., and 200 μL of supernatant was recovered and counted in a liquid scintillation counter to quantify ^14 C-serotonin release. […] Results are expressed as both aggregometry curves and as % maximal serotonin release as defined by thrombin challenge in the absence of ECs.

[3] = test system: nitric oxide production in heart; test: direct measurement of coronary vascular and endocardial NO with porphyrinic microsensor; parameters: species or system rat; details: transplanted hearts
Protocol: Direct measurement of coronary vascular and endocardial nitric oxide synthesis were made with a porphyrinic microsensor^13 using differential pulse voltammetry or amperometry. Rat hearts were explanted and preserved as described above, and studied fresh (no preservation/transplantation) or after hypothermic preservation in lactated Ringer's (LR) solution, heterotopic transplantation, and 10 minutes of reperfusion. The coronary vasculature was flushed free of blood with LR followed by 4 ml of LR supplemented with L-Arg (2 mM) and bradykinin ([…], Sigma), which was recycled (1 ml/min) through the coronary vasculature by flushing down the cross-clamped aortic root. Aliquots of perfusate were immediately transferred to an anaerobic environment for measurements and compared to an aqueous nitric oxide reference. Differential pulse voltammograms were obtained using a sensor (working electrode), saturated calomel electrode reference, and platinum wire-auxiliary electrode, with a pulse amplitude of 40 mV. Endocardial NO was measured by implanting the sensor in the septal endocardium of a freshly explanted or preserved/transplanted heart, and after the baseline stabilization, […] bradykinin was applied and NO release continuously monitored by amperometry at constant potential of 0.63 V.

[4] = test system: nitric oxide in lung tissue; test: ex vivo pulmonary NO with porphyrinic microsensor; parameters: species or system rat
Protocol: Direct measurement of pulmonary NO production was made using a porphyrinic microsensor^30 and differential pulse voltammetry. Pieces of rat lung of equal weight (40±4 mg) were harvested following 6 hrs of hypothermic preservation in LR alone, or 6 hrs of preservation followed by orthotopic transplantation and 30 minutes of reperfusion as described above. These pieces were placed in a vial containing 2 mL of LR and equilibrated to 37° C. under ambient conditions. Differential pulse voltammograms (current [proportional to NO concentration] versus potential) with pulse amplitude of 40 mV were obtained with a sensor placed on the tissue surface. A saturated calomel reference electrode (SCE) and platinum wire (auxiliary electrode) were immersed in the LR solution. The sensor is a working electrode at which oxidation of NO occurs, resulting in an electric current (which flows between working and auxiliary electrodes). The reference electrode is used to monitor the potential of the working electrode. NO concentrations measured ex vivo have been normalized, and are reported as per 40 mg of tissue. An aqueous NO solution prepared as previously described^31 was used to calibrate the sensor.

[5] = test system: nitric oxide at lung surface; test: in vivo pulmonary NO with porphyrinic microsensor; parameters: species or system rat
Protocol: Measurements of nitric oxide concentrations in vivo were performed with a two electrode system using a porphyrinic sensor as a working electrode and a platinum wire as an auxiliary/reference electrode. The porphyrinic sensor with a flexible base was lowered onto the exposed surface of the lung using a micromanipulator. A small piezoelectric signal (mechanically generated current) was used to indicate that the sensor had made contact with the tissue surface. NO measurements were begun once the flexible sensor assumed an L-shaped configuration on the tissue surface and the platinum wire was connected to adjacent tissue. Continous amperometric (current-time) measurements were obtained at a constant potential of 0.68 V, during the period of warm ischemia (after the lung was sewn in place but not yet reperfused) and continously as the vascular cross-clamp was released and reperfusion initiated. Topical application of the calcium ionophore (A23187, 9.5 μM; Sigma) and superoxide dismutase (100 U/ml; Sigma) was applied as monitoring was continued.

vascular smooth muscle = details: cited from earlier work
pulmonary vasculature = details: in vivo; cited from earlier work
[6] = test system: myocardial infarct / neutrophils; details: canine ischemia/reperfusion; cited from earlier work
[7] = test system: cardiac graft vasculature; test: graft blood flow by latex microspheres, cAMP series; format: in vivo, rat
Protocol: Perfusion of Donor Graft. Ten minutes after restoration of blood flow, a suspension of latex microspheres (0.5 ml of 10 μm diameter microspheres at a final concentration in 10^6 /ml in phosphate-buffered saline containing Tween 80, 0.05%) (E-Z Trac, Los Angeles, Calif.) was injected over 30 seconds into the donor aortic root. After one minute, the heart was rapidly excised, rinsed free of intracavitary and surface blood, and the atria and great vessels were removed. The ventricles were cut into pieces, each piece weighed, and then digested by alkaline hydrolysis, centrifuged and washed according to the manufacturer's instructions. Beads in each piece were then counted in an Improved Neubauer hemocytometer VWR Scientific, Piscataway, N.J.). Results are expressed as number of spheres per (40X) field per gram of ventricle. A minimum of ten fields were counted and the mean ± SEM is reported.

[8] = test system: neutrophil infiltration of cardiac graft; test: graft myeloperoxidase activity/histology (leukocyte infiltration), cAMP series; format: in vivo, rat
Protocol: Myeloperoxidase assay/histology. Ten minutes following restoration of blood flow, transplanted hearts were excised and the aortic root was flushed for 5 minutes (rate of 2 ml/minute controlled by roller pump) with normal saline (Baxter, Edison, N.J.), the atria and great vessels were removed, and intracavitary blood was evacuated. Remaining ventricular pieces were weighed, and homogenized in phosphate buffer (50 mM; pH 7.4, 5 ml/gm of tissue) containing hexadecyltrimethylammonium bromide (0.5%; HTAB, [Sigma]) and frozen at -80° C. The myeloperoxidase assay was performed, as described (29), by thawing the sample, centrifuging at 40,000 g for 10 minutes at 4° C., and decanting the supernatant, which was assayed for myeloperoxidase activity using standard chromogenic spectrophotometric technique: test sample (0.1 ml) was added to phosphate buffer (50 mM; pH 6.0) containing O-dianisidine dihydrochloride (Sigma), hydrogen peroxide (0.0005%), and change in absorbance at 460 nm was measured over 5 min (increase in OD was linear over this time interval). For histologic study, cardiac graft samples were fixed in an ascending series of aldehydes, embedded, sectioned, and stained with hematoxylin and eosin.

[9] = in vitro toxicity to endothelial cells; format: cell-based; details: data not shown, read-out: concentration toxic to endothelial cells
lung [10] = test: orthotopic rat left lung transplantation, nitroglycerin series; format: in vivo, rat (male Lewis)
lung [11] = details: in vivo; cited from earlier work
[12] = lung preserved 6 h in LR, no reimplantation

CCCC(=O)[O-].[Na+] [butyrate, sodium butyrate]
beneficial effect on cardiac preservation (heart [1]): no such beneficial effect | effect on cardiac preservation (heart [2]; 12 h in LR): consistently failed

SOD: bovine erythrocyte superoxide dismutase
effect on NO / platelet inhibition by ECs (HUVECs / platelets): restore NO levels | effect on NO levels [3]: levels augmented | fold increase in detectable NO with SOD ([4]; lung preserved 6 h in LR and reimplanted): ~ 25 fold | NO concentration with SOD [4, 12]: 300 nM | increase in NO with SOD [4, 12]: 50% | increase in NO with SOD ([5]; normal lung): 10% | local NO concentration with SOD ([5]; normal lung): 720 ± 110 nM | NO level with SOD during reperfusion ([5]; preserved 6 h in LR, transplanted, from ~25 nM): ~ 40 nM

nitric oxide [NO]
minimal concentration relaxing vascular smooth muscle (vascular smooth muscle): less than 15 nM

CCCOc1ccccc1-c1nc2[nH]nnc2c(=O)[nH]1 [M&B 22948, 2-o-propoxyphenyl-8-azapurin-6-one]
effect on vasodilators (pulmonary vasculature): augments the pulmonary vasodilating effects of NO(cGMP)-dependent vasodilators, but not those of a cAMP-dependent vasodilator

COc1ccc(C2CNC(=O)C2)cc1OC1CCCC1 (stereo not drawn) [rolipram]
effect on cardiac preservation (heart [2]; 12 h in LR): uniformly enhanced preservation | myocardial infarct size [6]: does not limit myocardial infarct size | neutrophil superoxide production in vitro / no-reflow [6]: significantly reduces neutrophil production of superoxide in vitro

CCCC(=O)Nc1ncnc2c1ncn2[C@@H]1O[C@@H]2COP(=O)(O)O[C@H]2[C@H]1OC(=O)CCC [db-cAMP, N^6, O^2' -dibutyryl adenosine 3',5'monophosphate]
concentration for optimal/maximal preservation (heart [2]; 12 h in LR): 1 to 2 mM | graft survival (heart [2]; 12 h preservation in LR): 90% | graft blood flow ([7]; 12 h in LR, db-cAMP 2 mM vs LR alone): significant increase in blood flow | fold increase in graft blood flow ([7]; vs without db-cAMP): 5.5 fold | fold decrease in neutrophil infiltration / myeloperoxidase activity ([8]; 12 h, db-cAMP 2 mM in LR vs LR alone): 3.2 fold | PMNs in blood vessel by histology ([8]; 12 h in LR, 10 min reperfusion, db-cAMP 2 mM where added): no PMNs | MCC [9]: > 4 mM

Nc1ncnc2c1nc(Br)n2[C@@H]1O[C@H](CO)[C@@H](O)[C@H]1O [8-bromoadenosine]
beneficial effect on cardiac preservation (heart [1]): no such beneficial effect | effect on cardiac preservation (heart [2]; 12 h in LR): ineffective

NNc1nncc2ccccc12 [hydralazine]
pulmonary artery flushing time (lung [10]; 30 mL at constant pressure during harvest): 69.3 ± 4.5 s | recipient survival (lung [10]; 6 h in EC, 30 min, supplements NTG 0.1 mg/mL, hydralazine 0.02 μg/mL): 33% | effect on lung preservation (lung [11]): not proven beneficial in lung preservation
